Results taken from patent US8546340B2, “Soothing pharmaceutical or cosmetic composition comprising a peptide that activates HMG-CoA reductase” (ISP Investments Inc., priority 2008, dated 2013).
No end group written: not given here.

Columns and labels:
HMG-CoA reductase = experiment: Expression of HMG-CoA reductase in normal human keratinocytes (immunofluorescence); type: cell-based; conditions: peptide 0.5 ppm (1% of 50 ppm stock), 24 or 48 hours
Protocol: Protocol: Normal human keratinocytes in culture are treated with a 1% stock solution at 50 ppm of peptide SEQ ID No. 5 for 24 or 48 hours (the medium in the presence of the active ingredient is changed every 24 hours). The cells are then washed and fixed in cold methanol for 4 minutes at 4° C. The cells are incubated in the presence of a polyclonal rabbit antibody specific for HMG-CoA reductase (Millipore, Upstate), and then a secondary antibody coupled with a fluorescent dye. The cells are then examined by epifluorescence microscope (Nikon Eclipse E600 microscope).

interleukin-1 alpha = experiment: Ex vivo IL-1 alpha secretion by human skin biopsies (ELISA); type: cell-based; conditions: peptide 0.5 ppm 24 h, vs controls untreated by the peptide
Protocol: Protocol: 5 mm-diameter biopsies of human skin are maintained in culture at the air-liquid interface in the presence of standard culture medium. The samples are treated with a 1% dilution of a solution at 50 ppm of peptide SEQ ID No. 5 for 24 hours, and then irradiated by UVB radiation (200 mJ/cm^2) and put back in culture for 24 hours, or subjected to contact with SDS at 2.5% for 24 hours in the presence of the same concentration of peptide SEQ ID No. 5. Controls untreated by the peptide are carried out under the same conditions. At the end of the experiment, the quantity of interleukin-1 alpha salted out in the culture medium is assayed by the ELISA technique.

For “Ala-Gly-Glu-Leu-Ser-NH2 (AGELS-NH2) [Peptide SEQ ID No. 5]”, the “expression of HMG-CoA reductase (cytoplasmic fluorescence, microscopic observation)” value (HMG-CoA reductase) was “more intense cytoplasmic fluorescence”, the “reduction of quantity of IL-1 alpha salted out in culture medium” value (interleukin-1 alpha; SDS 2.5% for 24 hours with peptide) was 58% and the “reduction of quantity of IL-1 alpha salted out in culture medium” value (interleukin-1 alpha; UVB 200 mJ/cm^2, then 24 h culture) was 40%.
